Results taken from PMC4289246, “Dose-dependent effects of lesogaberan on reflux measures in patients with refractory gastroesophageal reflux disease: a randomized, placebo-controlled study” (BMC Gastroenterology, 2014).

Experiments:
[1] = system: patients with GERD who had a partial response to PPI treatment; assay: 24-h impedance–pH measurement of reflux variables, crossover vs placebo; type: in vivo, human; conditions: for Difference in geometric mean, number of reflux episodes in supine position / Difference in geometric mean, number of reflux episodes in upright position / Difference in geometric mean, number of weakly acid reflux episodes / Difference in geometric mean, number of acid reflux episodes / Difference in geometric mean, number of mixed gas/liquid reflux episodes / Difference in geometric mean, number of pure liquid reflux episodes / Difference in geometric mean, proportion of time with esophageal pH < 4 / Difference in geometric mean, proportion of time with intragastric pH < 4 / Difference in geometric mean, proximal extent of reflux (cm) / Difference in geometric mean, total number of reflux episodes: relative to placebo; for Difference in geometric mean, number of weakly acid reflux episodes: pH 4.0–6.5; for Difference in geometric mean, number of weakly acid reflux episodes / Difference in geometric mean, number of acid reflux episodes / Difference in geometric mean, number of mixed gas/liquid reflux episodes / Difference in geometric mean, number of pure liquid reflux episodes / Difference in geometric mean, proportion of time with esophageal pH < 4 / Difference in geometric mean, proportion of time with intragastric pH < 4 / Difference in geometric mean, proximal extent of reflux (cm) / Difference in geometric mean, total number of reflux episodes: upright or supine; for Difference in geometric mean, number of acid reflux episodes: pH < 4
Experimental: This was a randomized, double-blind, placebo-controlled, four-way crossover, phase 2a study. Patients were randomized to receive one of 10 treatment sequences each consisting of placebo and three of the four different lesogaberan doses (30, 90, 120 and 240 mg). These were given on different days, each separated by a 7–28-day washout period. […] Each dose was given twice over a 24-h period in the form of modified-release capsules: one taken 1 h before breakfast after fasting the night before, and the other taken 1 h before dinner. (Note that patients fasted overnight before each study period: no food after 22:00 and no fluids after 24:00.) Treatment with patients’ usual, regular and optimized dose of PPI was continued throughout the study.
Impedance–pH measurements were taken for 24 h after the first administration of each dose using a Sleuth® multichannel intraluminal impedance ambulatory system (Sandhill Scientific, Inc., Highlands Ranch, CO, USA). This device includes a data logger, impedance–pH amplifiers, and a catheter consisting of two antimony pH sensors (calibrated before and after recordings were taken using standard pH 7 and pH 1 buffers) placed 5 cm above and 10 cm below the lower esophageal sphincter (LES) and eight impedance electrodes placed 2, 4, 6, 8, 10, 14, 16 and 18 cm above the LES. The electrodes are paired to measure impedance at 3, 5, 7, 9, 15 and 17 cm above the LES. The position of the LES was located by a manometric recording before the study medication or placebo was given.
(§1) Impedance–pH readings were analysed by one investigator (JP) using dedicated software (BioVIEW Analysis®, version 5.5.4; Sandhill Scientific Inc.) and were then checked manually. This was performed in a blinded manner and the results were used to determine the number of reflux episodes, defined as a period when impedance decreased to less than 50% of baseline (liquid episode) or increased to more than 150% of baseline (gas episode), propagating […] from the most distal channel. Acid, weakly acid and non-acid reflux episodes were defined as episodes lasting longer than 5 s with a pH of < 4, 4.0–6.5 and > 6.5, respectively. The decision to use a cautious cut-off pH of 6.5 was taken in order to ensure that no measurements near to a pH of 7 would be erroneously categorized as weakly acidic. These definitions have previously been employed for studies of this type. During the 24-h period of ambulatory impedance–pH measurement, patients used a data logger and a diary card to record their meal intake and periods in supine position, as well as any GERD symptoms.
The effect of each dose of lesogaberan was measured as the proportional difference, relative to placebo, in the geometric mean of the reflux variables assessed over 24 h. The analysis was based on a mixed-effect model with treatment, period and sequence as fixed effects and patient as a random effect. Geometric means and relative differences in geometric means were reported with 95% CIs. A p value of < 0.05 was considered to indicate statistical significance and no corrections for multiple testing were performed. Multiplicity was accounted for by using a step-down sequential procedure comparing lesogaberan doses with placebo, starting at a 240 mg dose and, in the event of rejection of the null hypothesis, comparison of descending doses.

[2] = system: patients with GERD who had a partial response to PPI treatment; assay: GERD symptoms recorded by data logger and diary card during 24-h measurement; type: in vivo, human
Experimental: as §1

[3] = system: patients with GERD who have a partial response to PPI therapy; design: method as in PMID 20451523; conditions: 65 mg twice daily, partial responders to PPI therapy; cited from earlier work
[4] = system: patients with a partial response to PPI treatment; design: method as in PMID 21402616; conditions: 65 mg twice daily add-on to PPIs, phase 2a; placebo 8%; cited from earlier work
[5] = system: partial responders to PPI treatment; design: method as in earlier work; conditions: cited from earlier work
[6] = 30 mg twice in 24 h, add-on to PPI
[7] = 90 mg twice in 24 h, add-on to PPI
[8] = 120 mg twice in 24 h, add-on to PPI
[9] = 240 mg twice in 24 h, add-on to PPI

With `NC[C@@H](F)C[PH](=O)O` [lesogaberan, (R)-(3-amino-2-fluoropropyl) phosphinic acid] the “Difference in geometric mean, number of reflux episodes in supine position” value (from here on “Difference … in supine position”) [1, 6] was -37.3%, the “Difference in geometric mean, number of reflux episodes in upright position” value (from here on “Difference … in upright position”) [1, 6] was -25.2% and the “Difference in geometric mean, number of weakly acid reflux episodes” value (shortened to “Difference … of weakly acid reflux episodes”) [1, 6] was -28.3%. The “Difference in geometric mean, number of acid reflux episodes” value (“Difference … of acid reflux episodes” below) [1, 6] was -34.7%, the “Difference in geometric mean, number of mixed gas/liquid reflux episodes” value (shortened to “Difference … of mixed gas/liquid reflux episodes”) [1, 6] was -25.0% and the “Difference in geometric mean, number of pure liquid reflux episodes” value (“Difference … of pure liquid reflux episodes” for short) [1, 6] was -27.9%. For the same compound, the “Difference in geometric mean, proportion of time with esophageal pH < 4” value (shortened to “Difference … with esophageal pH < 4”) [1, 6] was -69.8%, the “Difference in geometric mean, proportion of time with intragastric pH < 4” value (“Difference … with intragastric pH < 4” below) [1, 6] was “+40.4%” and the “Difference in geometric mean, proximal extent of reflux (cm)” value (“Difference in geometric mean … (cm)” below) [1, 6] was -39.1%. For the same compound, the “Difference in geometric mean, total number of reflux episodes” value [1, 6] was -26.2%, the “reduction in the mean number of pure liquid reflux episodes relative to placebo” value [1, 7] was 53.0% and the “reduction in the mean number of total reflux episodes relative to placebo” value [1, 7] was “approximately 37%”. The “Difference … in supine position” value [1, 7] was -12.3%, the “Difference … in upright position” value [1, 7] was -38.4% and the “Difference … of weakly acid reflux episodes” value [1, 7] was -31.4%. The “Difference … of acid reflux episodes” value [1, 7] was -45.5%, the “Difference … of mixed gas/liquid reflux episodes” value [1, 7] was -28.3% and the “Difference … of pure liquid reflux episodes” value [1, 7] was -53.0%. For the same compound, the “Difference … with esophageal pH < 4” value [1, 7] was -56.1%, the “Difference … with intragastric pH < 4” value [1, 7] was “+23.7%” and the “Difference in geometric mean … (cm)” value [1, 7] was -58.9%. For the same compound, the “Difference in geometric mean, total number of reflux episodes” value [1, 7] was -37.0%, the “reduction in the mean number of pure liquid reflux episodes relative to placebo” value [1, 8] was 44.1% and the “Difference … in supine position” value [1, 8] was -31.2%. The “Difference … in upright position” value [1, 8] was -46.1%, the “Difference … of weakly acid reflux episodes” value [1, 8] was -44.5% and the “Difference … of acid reflux episodes” value [1, 8] was -57.9%. The “Difference … of mixed gas/liquid reflux episodes” value [1, 8] was -42.5%, the “Difference … of pure liquid reflux episodes” value [1, 8] was -44.1% and the “Difference … with esophageal pH < 4” value [1, 8] was -65.7%. The “Difference … with intragastric pH < 4” value [1, 8] was “+3.6%”, the “Difference in geometric mean … (cm)” value [1, 8] was -66.3% and the “Difference in geometric mean, total number of reflux episodes” value [1, 8] was -45.0%. For the same compound, the “reduction in the mean number of pure liquid reflux episodes relative to placebo” value [1, 9] was 51.9%, the “Difference … in supine position” value [1, 9] was -69.1% and the “Difference … in upright position” value [1, 9] was -50.7%. The “Difference … of weakly acid reflux episodes” value [1, 9] was -45.1%, the “Difference … of acid reflux episodes” value [1, 9] was -57.1% and the “Difference … of mixed gas/liquid reflux episodes” value [1, 9] was -56.7%. The “Difference … of pure liquid reflux episodes” value [1, 9] was -51.9%, the “Difference … with esophageal pH < 4” value [1, 9] was -73.0% and the “Difference … with intragastric pH < 4” value [1, 9] was “+27.7%”. For the same compound, the “Difference in geometric mean … (cm)” value [1, 9] was -63.3%, the “Difference in geometric mean, total number of reflux episodes” value [1, 9] was -52.8% and the “effect on mean number of pure gas reflux episodes relative to placebo” value ([1]; 30, 90, 120, 240 mg twice in 24 h, data not shown) was “No significant effect”. For the same compound, the “effect on mean number of non-acid reflux episodes relative to placebo” value ([1]; 30, 90, 120, 240 mg twice in 24 h, pH > 6.5, data not shown) was “No significant effect”, the “reduction relative to placebo in the mean number of reflux episodes, supine position” value ([1]; highest dose (240 mg) twice in 24 h, add-on to PPI) was 69.1% and the “median number of symptoms reported during dosing” value (shortened to “median number”) ([2]; 30 mg twice in 24 h) was 1.0 symptom. The “median number” value ([2]; 90 mg twice in 24 h) was 1.0 symptom, the “median number” value ([2]; 120 mg twice in 24 h) was 0 symptoms and the “median number” value ([2]; 240 mg twice in 24 h) was 0.5 symptoms. The “reduction in the mean number of total reflux episodes relative to placebo” value [3] was “approximately 35%”, the “proportion of responders (max one 24-h period with heartburn and/or regurgitation of not more than mild intensity during last 7 treatment days)” value [4] was 16% and the “effect on GERD symptoms” value ([5]; 240 mg, phase 2b, partial responders to PPI treatment) was “does not have a clinically important effect on GERD symptoms”. The “patients with reversible elevated alanine transaminase levels >5 times the upper limit of normal” value ([5]; phase 2b study) was 6 patients.
